Values quoted from earlier work as cited in patent publication US7208615B2, “Triple mineral salts of (-)-hydroxycitric acid and processes for preparing the same” (Laila Impex, priority 2004, dated 2007).

Columns and labels:
[1] = background art; forms lactone, liquid form unstable during storage
[2] = background art (US 5,783,603)

| stability of free acid form [1] | hygroscopicity [2] | Compound |
| --- | --- | --- |
| unstable | – | O=C(O)CC(O)(C(=O)O)C(O)C(=O)O (single isomer, unassigned; (-)) [(−)-hydroxycitric acid] |
| – | hygroscopic | potassium salt of HCA |
